Reference: paper PMC7982521, “Studies on the Changes of Pharmacokinetics Behaviors of Phytochemicals and the Influence on Endogenous Metabolites After the Combination of Radix Bupleuri and Radix Paeoniae Alba Based on Multi-Component Pharmacokinetics and Metabolomics” (Frontiers in Pharmacology, 2021)
Where a name gives a salt, the structure may show the parent alone. Read-outs that look alike come from different tables or passages of the source.

Assay: Multi-component pharmacokinetics in rat plasma after oral administration of RB, RPA or RB-RPA extracts (UPLC-HRMS, non-compartmental analysis)
Format: in vivo, Sprague-Dawley rats
Description: (Beijing, China, No. SCXK2018-0011). […] All rats were free to access the water and food until 12 h before the experiment. The animal study was reviewed and approved by the Experimental Animal Ethical Committee of Modern Research Center for Traditional Chinese Medicine, Shanxi University (animal ethic approval number: SXULL2018018), and all experimental procedures were carried out in accordance with the NIH Guide for the Care and Use of Laboratory Animals. After one week of adaptation, twenty-one rats were divided into three groups randomly, with seven rats in each group: 1) RPA group, were oral administration of Radix Paeoniae Alba extract (45 g-herb/kg); 2) RB group, were oral administration of Radix Bupleuri extract (45 g-herb/kg); 3) RB-RPA group, were oral administration of powder mixture of Radix Bupleuri and Radix Paeoniae Alba extracts (containing 45 g-herb/kg Radix Bupleuri and 45 g-herb/kg Radix Paeoniae Alba). […] Each group received intragastric administration with a volume of 10 ml/kg (rat body weight). […] All rats were free to access the water during the experiment. The blood samples at each time point were collected from seven rats. The blood samples were centrifuged at 4,000 rpm for 10 min and frozen at -80°C until analysis. Using a Thermo-Fisher Dionex UltiMate 3000 UHPLC system coupled with a Q Exactive Orbitrap-MS (Thermo-Fisher, United States) and Xcalibur workstation (Thermo-Fisher Scientific Inc.,Waltham, MA, United States) to acquire UPLC-HRMS raw data. Chromatographic separation of herb extracts and plasma samples was performed on an Acquity UPLC HSS T3 column (2.1 mm × 100 mm, 1.8 μm) maintained at 37°C. The flow rate was 0.2 ml/min and the injection volume was 5 μL. […] Mass spectrometry detection conditions were set as follows: the MS data were acquired under positive and negative ionization modes via heated electrospray ionization (HESI) source. […] The Q Exactive Orbitrap-MS has a fast positive and negative ion switching function, which could switch between positive-negative ion modes during the analysis of the same sample. So, we applied the method of switching ion modes in the detection process to quantify all analytes better. […] UPLC/MS/MS calibration and quantitation data were processed with Xcalibur workstation (Thermo-Fisher Scientific Inc., Waltham, MA, United States). For the eight components with standard reference, calculating their concentrations from the standard curves. For the other 30 components without standard reference, their concentrations were analyzed following the regression equations of homologous compounds ([Qiao et al., 2012]): paeoniflorin for P1 and M1 to M3; methylgallate for M4 to M10; saikosaponin […] and […]; saikosaponin […]; saikosaponin […]; saikosaponin B2 for P11 and M25 to […].

[1] = male, Sprague-Dawley, rat, plasma, po, 45 g/kg, rat plasma, oral administration of mixed extracts RB-RPA, mean ± SD, n = 7
[2] = rat plasma, oral administration of single extract RPA, mean ± SD, n = 7
[3] = rat plasma, oral administration of mixed extracts RB-RPA, mean ± SD, n = 7
[4] = rat plasma, oral RB single extract 45 g-herb/kg, mean ± SD, n = 7
[5] = rat plasma, oral RB single extract 45 g-herb/kg, n = 7
[6] = rat plasma, oral RB-RPA mixed extracts (45 g-herb/kg RB + 45 g-herb/kg RPA), mean ± SD, n = 7
[7] = rat plasma, oral RB-RPA mixed extracts, n = 7

Structure (SMILES) | t1/2 [2] [h] | AUC0-t [3] [ng·h/mL] | AUC0-∞ [3] [ng·h/mL] | Cmax [3] [ng/mL] | t1/2 [3] [h] | tmax [3] [h] | AUC0-t [2] [ng·h/mL] | AUC0-∞ [2] [ng·h/mL] | Cmax [2] [ng/mL] | tmax [2] [h] | AUC0-t [4] [ng·h/mL] | AUC0-∞ [4] [ng·h/mL] | Cmax [4] [ng/mL] | t1/2 [4] [h] | tmax [4] [h] | AUC0-t [6] [ng·h/mL] | AUC0-∞ [6] [ng·h/mL] | Cmax [6] [ng/mL] | t1/2 [6] [h] | tmax [6] [h] | other results
CC1C2OC3(C)CC(=O)C1CC3(O)O2 (stereo not drawn) [Paeonimetabolin I] | 7.39 ± 0.45 | 4248.67 ± 1970.10 | 4806.68 ± 2129.42 | 575.13 ± 257.81 | 7.11 ± 2.01 | 0.83 ± 0.13 | 4864.64 ± 2525.32 | 5467.27 ± 2837.33 | 658.61 ± 349.75 | 0.75 ± 0.00 |  |  |  |  |  |  |  |  |  |  | 
C[C@H]1O[C@@H](O[C@H]2CC[C@@]3(C)[C@@H](CC[C@]4(C)[C@@H]3C=C[C@]35OC[C@@]6(CCC(C)(C)C[C@H]63)[C@@H](O)C[C@]54C)[C@]2(C)CO)[C@H](O)[C@@H](O)[C@H]1O [Prosaikogenin F] |  |  |  |  |  |  |  |  |  |  | 54.21 ± 25.01 | 57.97 ± 25.49 | 14.68 ± 6.91 | 2.91 ± 0.84 | 1.54 ± 0.78 | 71.62 ± 34.91 | 77.58 ± 36.46 | 18.36 ± 8.50 | 3.46 ± 0.55 | 1.62 ± 0.74 | 
O=S(=O)(O)Oc1cccc(O)c1O [Pyrogallol sulfate] | 7.72 ± 3.81 | 217.62 ± 126.82 | 257.66 ± 175.61 | 24.16 ± 13.26 | 7.54 ± 3.63 | 1.75 ± 0.61 | 164.21 ± 79.60 | 187.63 ± 91.25 | 18.42 ± 5.81 | 2.50 ± 0.78 |  |  |  |  |  |  |  |  |  |  | 

More lines, main results first:

t1/2 [2] [h] | AUC0-t [3] [ng·h/mL] | AUC0-∞ [3] [ng·h/mL] | Cmax [3] [ng/mL] | t1/2 [3] [h] | tmax [3] [h] | AUC0-t [2] [ng·h/mL] | AUC0-∞ [2] [ng·h/mL] | Cmax [2] [ng/mL] | tmax [2] [h] | AUC0-t [4] [ng·h/mL] | AUC0-∞ [4] [ng·h/mL] | Cmax [4] [ng/mL] | t1/2 [4] [h] | tmax [4] [h] | AUC0-t [6] [ng·h/mL] | AUC0-∞ [6] [ng·h/mL] | Cmax [6] [ng/mL] | t1/2 [6] [h] | tmax [6] [h] | Structure (SMILES) | other results
2.71 ± 0.72 |  |  |  |  |  |  |  |  |  |  |  |  |  |  |  |  |  |  |  | C[C@@]12C[C@@]3(O)O[C@@H](O1)[C@]1(COC(=O)c4ccccc4)[C@H]3C[C@@]12O[C@@H]1O[C@H](CO)[C@@H](O)[C@H](O)[C@H]1O [Paeoniflorin] | Cmax (male, Sprague-Dawley, rat, plasma, po, 45 g-herb/kg, rat plasma, oral RPA single extract 45 g-herb/kg, mean ± SD, n = 7, read-out: Cmax): 1780 ± 513 ng/mL; AUC(0-inf) [1]: 7170 ± 1140 ng·h/mL; half-life [1]: 1.96 ± 0.37 h; AUC0-t (male, Sprague-Dawley, rat, plasma, po, 45 g/kg, rat plasma, oral administration of mixed extracts RB-RPA, mean ± SD, n = 7, read-out: AUC0-t): 7170 ± 1140 ng·h/mL; Cmax (male, Sprague-Dawley, rat, plasma, po, 45 g/kg, rat plasma, oral administration of mixed extracts RB-RPA, mean ± SD, n = 7, read-out: Cmax): 2930 ± 386 ng/mL; tmax (male, Sprague-Dawley, rat, plasma, po, 45 g/kg, rat plasma, oral administration of mixed extracts RB-RPA, mean ± SD, n = 7, read-out: tmax): 0.33 ± 0.13 h; AUC(0-inf) (male, Sprague-Dawley, rat, plasma, po, 45 g/kg, rat plasma, oral administration of single extract RPA, mean ± SD, n = 7): 4260 ± 873 ng·h/mL; AUC0-t (male, Sprague-Dawley, rat, plasma, po, 45 g/kg, rat plasma, oral administration of single extract RPA, mean ± SD, n = 7, read-out: AUC0-t): 4260 ± 869 ng·h/mL; Cmax (male, Sprague-Dawley, rat, plasma, po, 45 g/kg, rat plasma, oral administration of single extract RPA, mean ± SD, n = 7, read-out: Cmax): 1780 ± 513 ng/mL; Cmax (male, Sprague-Dawley, rat, plasma, po, rat plasma, oral RB-RPA mixed extracts (45 g-herb/kg RB + 45 g-herb/kg RPA), mean ± SD, n = 7, read-out: Cmax): 2930 ± 386 ng/mL; change of AUC0-∞ after combination (rat, oral RB-RPA group vs single herbal group (RB or RPA)): significantly increased
 |  |  |  |  |  |  |  |  |  | 27.23 ± 10.38 | 31.50 ± 8.81 | 7.47 ± 3.88 | 3.38 ± 1.75 | 0.83 ± 0.52 | 32.79 ± 15.58 | 34.59 ± 14.83 | 8.53 ± 4.68 | 2.98 ± 1.07 | 0.71 ± 0.40 | C[C@H]1O[C@@H](O[C@H]2CC[C@@]3(C)[C@@H](CC[C@]4(C)[C@@H]3C=CC3=C5CC(C)(C)CC[C@]5(CO)[C@H](O)C[C@]34C)[C@]2(C)CO)[C@H](O)[C@@H](O)[C@H]1O [Prosaikogenin D] | Cmax, second value [5]: 6.32 ± 3.38 ng/mL; tmax, second value [5]: 1.75 ± 1.02 h; Cmax, second value [7]: 8.42 ± 4.54 ng/mL; tmax, second value [7]: 1.86 ± 0.92 h
 |  |  |  |  |  |  |  |  |  | 10.10 ± 4.96 | 11.33 ± 5.65 | 5.81 ± 2.73 | 1.48 ± 0.50 | 0.79 ± 0.10 | 11.50 ± 5.88 | 12.94 ± 6.57 | 6.08 ± 3.17 | 1.48 ± 0.63 | 0.75 ± 0.16 | C[C@H]1O[C@@H](O[C@@H]2CC[C@@]3(C)[C@@H](CC[C@]4(C)[C@@H]3C=C[C@]35OC[C@@]6(CCC(C)(C)C[C@H]63)[C@@H](O)C[C@]54C)[C@@]2(C)CO)[C@H](O)[C@@H](O)[C@H]1O [Prosaikogenin G] | 
